These compounds were tested against T1, 5-HT7 (Homo sapiens, UniProt P34969) (assay: In vitro radioligand binding assay, 5-HT7, [3H]LSD). Conditions: human recombinant (CHO cells).
T1 construct: expressed in transfected cells; host or cells: CHO cells
Parameters: concentration or dose not given beside the values
Protocol: Certain compounds were tested by in vitro binding assays using standard procedures. […] These receptors and assays are well known to those skilled in the art, as exemplified by the following: Abramovitz, M. et al. (2000), Biochem. Biophys. Acta., 1483: 285-293 (EP4, IP (PGI2)); Aharony, D. et al. (1993), Mol. Pharmacol., 44: 356-363 (NK2); Ardati, A. et al. (1997), Mol. Pharmacol., 51: 816-824 (NOP (ORL1)); Bignon, E. et al. (1999), J. Pharmacol. Exp. Ther. 289: 742-751 (CCK1 (CCKA)); Bloomquist, B. T. et al. (1998), Biochem. Biophys. Res. Commun., 243: 474-479 (GAL2); Brockhaus, M. et al. (1990), Proc. Natl. Acad. Sci. U.S.A., 87: 3127-3131 (TNF-α); Brown, G. B. (1986), J. Neurosci., 6: 2064-2070 (Na+ channel (site 2)); Buchan, K. W. et al. (1994), Brit. J. Pharmacol., 112: 1251-1257 (ETA); Cesura, A. M. et al. (1990), Mol. Pharmacol., 37: 358-366 (MAO-A); Choi, D. S. et al. (1994), FEBS Lett., 352: 393-399 (5-HT2B); Clark, A. F. et al. (1996), Invest. Ophtalmol. Vis. Sci., 37: 805-813 (GR); Couvineau, A. et al. (1985), Biochem. J., 231: 139-143 (VPAC1 (VIP1)); Dorje, F. et al. (1991), J. Pharmacol. Exp. Ther., 256: 727-733 (M1, M2, M3, M4); Ferry, G. et al. (2001), Eur. J. Pharmacol., 417: 77-89 (PPARγ); Fuchs, S. et al. (2001), Mol. Med., 7: 115-124 (ETB); Fuhlendorff, J. et al. (1990), Proc. Natl. Acad. Sci. U.S.A., 87: 182-186 (Y2); Ganapathy M E. et al. (1999), J. Pharmacol. Exp. Ther., 289: 251-260 (sigma (non-selective)); Gopalakrishnan, M. et al. (1996), J. Pharmacol. Exp. Ther., 276: 289-297 (N neuronal α4β2); Greengrass, P. and Bremner, R. (1979), Eur. J. Pharmacol., 55: 323-326 (α1 (non-selective)); Grandy, D. K. et al. (1989), Proc. Natl. Acad. Sci. U.S.A., 86: 9762-9766 (D25); Guard, S. et al. (1993), Eur. J. Pharmacol., 240:177-184 (BB (non-selective)); Heuillet, E. et al. (1993), J. Neurochem., 60: 868-876 (NK1, P2X); Hope, A. G. et al. (1996), Brit. J. Pharmacol., 118: 1237-1245 (5-HT3); Hoyer, D. et al. (1985), Eur. J. Pharmacol., 118: 1-12 (5-HT1B); Hugues, M. et al. (1982), J. Biol. Chem., 257: 2762-2769 (5-HT2A, SKCa channel); Joseph, S. S. et al. (2004), Naun.-Sch. Arch. Pharm., 369: 525-532 (β2); Le, M. T. et al. (2005), Eur. J. Pharmacol., 513: 35-45 (AT1); Le Fur, G. et al. (1983), Life Sci., 33: 449-457) (BZD (peripheral); Lee, Y. M. et al. (1993), J. Biol. Chem., 268: 8164-8169 (CCK2 (CCKB)); Leurs, R. et al. (1994), Brit. J. Pharmacol., 112: 847-854 (H2); Levin, M. C. et al. (2002), J. Biol. Chem., 277: 30429-30435 (11); Lewin, A. H. et al. (1989), Mol. Pharmacol., 35: 189-194 (Cl− channel (GABA-gated)); Lukas, R. J. (1986), J. Neurochem., 46: 1936-1941 (N muscle-type); Luthin, D. R. et al. (1995), Mol. Pharmacol., 47: 307-313; (A2A); Mackenzie, R. G. et al. (1994), Eur. J. Pharmacol., 266: 79-85 (D3); Mulheron, J. G. et al. (1994), J. Biol. Chem., 269: 12954-12962 (5-HT1A); Meng, F. et al. (1993), Proc. Natl. Acad. Sci. U.S.A., 90: 9954-9958 (κ (KOP)); Monsma, F. J. et al. (1993), Mol. Pharmacol., 43: 320-327 (5-HT6); Neote, K. et al. (1993), Cell, 72: 415-425 (CCR1); Pacholczyk, T. et al. (1991), Nature, 350: 350-354 (sst (non-selective, norepinephrine transporter)); Peralta, E. G. et al. (1987), Embo. J., 6: 3923-3929 (M3); Pristupa, Z. B. et al. (1994), Mol. Pharmacol., 45: 125-135 (dopamine transporter); Pruneau, D. et al. (1998), Brit. J. Pharmacol., 125: 365-372 (B2); Rees, S. et al. (1994), FEBS Lett., 355: 242-246 (5-HT5a); Reynolds, I. J. et al. (1986), J. Pharmacol. Exp. Ther., 237: 731-738 (Ca2+ channel (L, verapamil site)); Rinaldi-Carmona, M. et al. (1996), J. Pharmacol. Exp. Ther., 278: 871-878 (CB1); Salvatore, C. A. et al. (1993), Proc. Natl. Acad. Sci. U.S.A., 90: 10365-10369 (A3); Sarau, H. M. et al. (1997), J. Pharmacol. Exp. Ther., 281: 1303-1311 (NK3); Schioth, H. B. et al. (1997), Neuropeptides, 31: 565-571 (MC4); Sharples, C. […]

T1 sequence (P34969 whole entry): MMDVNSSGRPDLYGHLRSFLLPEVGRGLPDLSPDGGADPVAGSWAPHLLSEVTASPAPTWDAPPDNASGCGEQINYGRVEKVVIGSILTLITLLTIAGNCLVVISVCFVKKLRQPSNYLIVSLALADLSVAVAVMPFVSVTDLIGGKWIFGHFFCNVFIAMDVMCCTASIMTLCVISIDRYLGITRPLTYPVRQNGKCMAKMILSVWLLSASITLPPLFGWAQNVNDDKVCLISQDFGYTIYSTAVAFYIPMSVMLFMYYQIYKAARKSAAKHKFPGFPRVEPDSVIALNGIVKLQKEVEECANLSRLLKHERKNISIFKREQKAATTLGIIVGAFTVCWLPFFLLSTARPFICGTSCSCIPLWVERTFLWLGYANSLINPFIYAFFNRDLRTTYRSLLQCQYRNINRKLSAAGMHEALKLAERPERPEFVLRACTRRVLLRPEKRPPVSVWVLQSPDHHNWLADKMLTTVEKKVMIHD

In order of rising “5HT7 percent inhibition of specific binding” value:
1. Clc1ccc2c(c1)[C@H]([C@@H]1CCCN1)OCC2 [Compound I-29, (S)-2-((R)-7-chloroisochroman-1-yl)pyrrolidine]  52%
2. Fc1ccc2c(c1)[C@H]([C@@H]1CCCN1)OCC2 [Compound I-5, (2S)-2-((R)-7-fluoroisochroman-1-yl)pyrrolidine]  60%
3. Fc1cccc2c1CCO[C@@H]2[C@H]1CCN1 [Compound I-96, (R)-2-((S)-5-fluoroisochroman-1-yl)azetidine]  69%
4. Fc1cccc2c1CCO[C@@H]2[C@@H]1CCN1 [Compound I-94, (S)-2-((S)-5-fluoroisochroman-1-yl)azetidine]  74%
5. Fc1ccc2c(c1)CCO[C@H]2[C@@H]1CCCN1 [Compound I-9, (S)-2-((R)-6-fluoroisochroman-1-yl)pyrrolidine]  80%
6. Fc1cccc2c1[C@H]([C@@H]1CCCN1)OCC2 [Compound I-1, (S)-2-((R)-8-fluoroisochroman-1-yl)pyrrolidine]  88%
7. Fc1ccc2c(c1)CCO[C@H]2[C@@H]1CCN1 [Compound I-90, (S)-2-((R)-6-fluoroisochroman-1-yl)azetidine]  96%
8. Fc1cccc2c1[C@H]([C@@H]1CCN1)OCC2 [Compound I-83, (S)-2-((R)-8-fluoroisochroman-1-yl)azetidine]  99%
